Assay [1] deals with Human immunodeficiency virus 1. Put plainly: Antiviral activity against HIV1 LAV-1 infected in human PBMC cells after 6 days by RT assay. The assay is classed as functional, organism-based. Conditions: Human immunodeficiency virus 1, LAV-1, PBMC, 144 h.
A further assay relates to PBMC. Put plainly: Cytotoxicity against human PBMC cells assessed as reduction in cell viability after 5 days by Cell Titer 96 Aqueous One Solution cell proliferation assay. The assay is classed as cell-based. Conditions: 120 h.
Another assay concerns Vero. Put plainly: Cytotoxicity against african green monkey Vero cells assessed as reduction in cell viability after 5 days by Cell Titer 96 Aqueous One Solution cell proliferation assay. Conditions: Chlorocebus sabaeus, 120 h. The assay is classed as cell-based.
The subject of another assay is CCRF-CEM. Put plainly: Cytotoxicity against human CEM cells assessed as reduction in cell viability after 5 days by Cell Titer 96 Aqueous One Solution cell proliferation assay. The assay is classed as cell-based. Conditions: 120 h.
Assay [2] deals with Human immunodeficiency virus 1. Put plainly: Antiviral activity against HIV1. The assay is classed as functional, organism-based.

The structures appear in SMILES notation. A value given as a limit tells only on which side of the number the result lay.

With `Cc1c2c(nn1CC(=O)NCc1ccccc1F)-c1ccccc1S(=O)(=O)N2C`, the EC50 (as a rule, the concentration giving half of the maximal effect) in assay [1] was 57.5 µM. In assay [1], the EC90 (commonly the concentration needed for an effect of 90%) is not below 100 µM. The values for the IC50 in the assay with PBMC, in the assay on Vero and in the assay with CCRF-CEM were 87.5 µM, 96.1 µM and 82 µM, respectively.

`Cc1c2c(nn1CC(=O)Nc1ccccc1Br)-c1ccccc1S(=O)(=O)N2C` yielded a concentration for a half-maximal effect (EC50) in assay [1] of 6.5 µM. It took 15.7 µM to reach the 90% level in assay [1] (EC90). Besides, the IC50 (commonly the concentration that inhibits the measured activity by half) in the assay with PBMC was determined as 2.4 µM; with Vero it was 8.2 µM; in the assay with CCRF-CEM it was 6 µM.

`Cc1c2c(nn1CC(=O)Nc1cccc(Br)c1)-c1ccccc1S(=O)(=O)N2C` gave a concentration giving a half-maximal response (EC50) in assay [1] of 6.3 µM. In assay [1], this compound had an EC90 of 15.3 µM. The IC50 with PBMC stood at 8.1 µM; in the assay on Vero, 7.2 µM; with CCRF-CEM it was 5.2 µM.

As to `COc1cccc(NC(=O)Cn2nc3c(c2C)N(C)S(=O)(=O)c2ccccc2-3)c1`, the half-maximal effective concentration (EC50) in assay [1] was 7.2 µM. The compound also returned an EC90 in assay [1] of 17.3 µM. In addition, the concentration for half-maximal inhibition (IC50) is 10.5 µM in the assay with PBMC, not below 100 µM with Vero and 9.3 µM in the assay with CCRF-CEM.

In assay [1], `COc1ccc(NC(=O)Cn2nc3c(c2C)N(C)S(=O)(=O)c2ccccc2-3)c(OC)c1` had an EC50 of more than 100 µM. The compound also registered an EC90 in assay [1] of more than 100 µM. For the same compound, the IC50 in the assay on PBMC, with Vero and in the assay with CCRF-CEM was more than 100 µM in each case.

Turning to `Cc1c2c(nn1CC(=O)NCc1ccccc1Cl)-c1ccccc1S(=O)(=O)N2C`, the EC50 in assay [1] was 15.9 µM. For the same compound, in assay [1], the concentration for an effect of 90% (EC90) stood at 28.5 µM. Besides, the values for the IC50 in the assay with PBMC, in the assay on Vero and in the assay on CCRF-CEM were 74.2 µM, 38.7 µM and 68.4 µM, respectively.

In assay [1], `Cc1c2c(nn1CC(=O)NCc1ccc(F)cc1)-c1ccccc1S(=O)(=O)N2C` had an EC50 of 22.4 µM. For the same compound, the EC90 in assay [1] is not below 100 µM. Further, the figures for the IC50 in the assay with PBMC, in the assay on Vero and in the assay on CCRF-CEM were more than 100 µM, more than 100 µM and 41.9 µM, respectively.

The compound `Cc1c2c(nn1CC(=O)NCc1ccccc1Br)-c1ccccc1S(=O)(=O)N2C` had an EC50 in assay [1] of 16.7 µM. The EC90 in assay [1] was 87.5 µM. Besides, the values for the IC50 with PBMC, in the assay on Vero and in the assay with CCRF-CEM were 63.1 µM, 36.5 µM and 38.1 µM, respectively.

In assay [1], `COc1ccccc1CNC(=O)Cn1nc2c(c1C)N(C)S(=O)(=O)c1ccccc1-2` had an EC50 of 17.2 µM. This compound also showed an EC90 in assay [1] of 60.3 µM. For the same compound, the figures for the IC50 in the assay on PBMC, in the assay with Vero and in the assay with CCRF-CEM were not below 100 µM, more than 100 µM and more than 100 µM, respectively.

On to `COc1cccc(CNC(=O)Cn2nc3c(c2C)N(C)S(=O)(=O)c2ccccc2-3)c1`, for which a half-maximal response in assay [1] (EC50) required 21.1 µM. In addition, the 90% effect level in assay [1] (EC90) was put at 92 µM. The values for the IC50 in the assay on PBMC, in the assay on Vero and in the assay on CCRF-CEM were 18.7 µM, 31.1 µM and 28.8 µM, respectively.

In assay [1], `COc1ccc(CNC(=O)Cn2nc3c(c2C)N(C)S(=O)(=O)c2ccccc2-3)cc1` gave an EC50 of 18.6 µM. In assay [1], this compound registered an EC90 not below 100 µM. The IC50 with PBMC was more than 100 µM; in the assay on Vero, 73 µM; with CCRF-CEM, more than 100 µM.

On to `Cc1ccccc1CNC(=O)Cn1nc2c(c1C)N(C)S(=O)(=O)c1ccccc1-2`, for which, in assay [1], the EC50 was not below 100 µM. This compound showed an EC90 in assay [1] of more than 100 µM. In addition, the IC50 with PBMC, in the assay on Vero and with CCRF-CEM was more than 100 µM throughout.

With `Cc1ccc(CNC(=O)Cn2nc3c(c2C)N(C)S(=O)(=O)c2ccccc2-3)cc1`, a half-maximal response in assay [1] (EC50) required 9.9 µM. In assay [1], the EC90 turned out to be 77.7 µM. For the same compound, the results for the IC50 in the assay with PBMC, in the assay with Vero and in the assay with CCRF-CEM were 52.2 µM, 63.1 µM and more than 100 µM, respectively.

The compound `Cc1c2c(nn1CC(=O)Nc1ccccc1)-c1ccccc1S(=O)(=O)N2C` had an EC50 in assay [1] of 6.8 µM. In addition, in assay [1], it took 16.3 µM to reach the 90% level (EC90). The IC50 in the assay on PBMC is 7.7 µM; with Vero, 6.8 µM; with CCRF-CEM, less than 1 µM.

In turn, `Cc1c2c(nn1CC(=O)Nc1ccccc1F)-c1ccccc1S(=O)(=O)N2C` registered an EC50 in assay [1] of 7.6 µM. Besides, the EC90 in assay [1] was determined as 35.4 µM. For the same compound, the IC50 in the assay with PBMC was found to be 18 µM; with Vero, 28.2 µM; with CCRF-CEM, 9.5 µM.

In assay [2], `C/C(=N\NC(=O)CN1c2c(-c3ccccc3)n[nH]c2-c2ccccc2S1(=O)=O)c1cc(Cl)sc1Cl` had an EC50 of 3.2 µM.

These data come from ChEMBL document CHEMBL3400033, “Molecular docking and antiviral activity of N-substituted benzyl/phenyl-2-(3,4-dimethyl-5,5-dioxidopyrazolo[4,3-c][1,2]benzothiazin-2(4H)-yl)acetamides” (Bioorg Med Chem Lett, 2015).
